Reference: patent publication US20260068886A1, “COMPOSITIONS AND METHODS FOR TARGETED INHIBITION AND DEGRADATION OF PROTEINS IN AN INSECT CELL” (Oerth Bio LLC, priority 2022, published 2026)
“Also recorded” adds a separate entry of the source.

What was measured:
FKBP-GFP = test: sfVHL mediated FKBP degradation in Sf9 cells expressing FKBP-GFP-P2A-RFP (fluorescence microscopy); format: cell-based
Method: FIG. 2 presents graphs showing the FKBP-GFP to RFP signal ratio when treated with dTAG-V1 (dose curve) and Bortezomib (1 or 10 μM).
FIG. 3 presents microscopy images showing the data plotted in the graphs of FIG. 2. The images are of dTAG-V1 treated Sf9 cells expressing FKBP-GFP-P2A-RFP observed in Brightfield, green fluorescent protein and red fluorescent protein excitation wavelengths.
Sf9 cells were seeded into individual wells of 6-well sterile tissue culture plates (2×10^6 cells per well) with 2 mL fresh Sf900 III serum-free medium prior to the assay. The Sf9 cells were transfected with a plasmid expressing FKBP-GFP-P2A-RFP. Plasmid construct (in TE buffer) was aliquoted into a sterile Eppendorf microcentrifuge tube, with fresh sSf900 III medium added to each Plasmid. Cellfectin II reagent (Life Technologies, Carlsbad, CA) was then added to the transfection mixture, and the tubes were inverted to mix and incubated at room temperature for 30 minutes. All media was removed from each well just prior to the addition of the transfection mixture. Complete transfection mixtures were added to cells dropwise using a P1000 pipette with sterile filter tips. Cells overlayed with transfection mixtures were incubated at 27° C. for 4 hours. Following 4 hours of incubation time, transfection mixtures were removed and replaced with 2 mL of fresh complete medium per well (Sf900 III). Cells were allowed to incubate at 27° C. for 96 hours to allow expression from the transfected plasmid. After construct expression, cells are harvested for further experiments. Cells were detached using a P1000 pipette with sterile filter tips. Cells were resuspended in fresh Sf900 III medium. Transfected Sf9 cells were seeded into individual wells of 96-well sterile tissue culture plates (1×10^6 cells per well) with 0.1 mL fresh Sf900 III serum-free medium. Cells were then supplemented with a 10× stock of the indicated compounds (dTAGV1, dTAG-V1-NEG, Bortezomib). Protein levels were finally analyzed using Carl Zeiss microscopy and FIJI image analysis.

[1] = tested on: MBP-FKBP-Hibit-His6 / sfVHL:sfElonginB/C+CUL2/RBX1; test: in vitro ubiquitination of MBP-FKBP-Hibit-His6 by sfVHL mediated by dTAGV-1 (Western blot, anti-His6); format: biochemical; details: sfVHL:sfElonginB/C + human CUL2/RBX1, E1, E2, ATP, ubiquitin; range of concentrations; room temperature
From the text: Lanes 1-4 and 5-8 are replicates of dose dependent dTAGV-1 dependent ubiquitination of MBP-FKBP-HIbit by sfVHL in vitro. In vitro ubiquitination is sfVHL dependent. No ubiquitination of MBP-FKBP-Hibit is observed in the absence of sfVHL (Lanes 9-16).
To assess the ability of sfVHL to act as a CUL2 adaptor protein en route to ubiquitination, sfVHL was expressed and purified recombinantly from E. coli as a complex with sfElonginB and C. […] The intensity and number of resolved bands observed, each indicating a distinct ubiquitination pattern of MBP-FKBP-Hibit-His6, was dependent on the dTAGV-1 concentration in the preparation. […] Further, ubiquitination as indicated by the complex band pattern above the MBP-FKBP-Hibit-His6 protein, was only observed when sfVHL:sfElonginB/C+CUL2/RBX1 was present confirming that the observed ubiquitination is PROTAC and sfVHL:sfElonginB/D+CUL2/RBX1 complex dependent.
To assess the ability of sfVHL to act as a CUL2 adaptor protein en route to ubiquitination, sfVHL was expressed and purified recombinantly from E. coli as a complex with sfElonginB and C. […] Further, ubiquitination was only observed when sfVHL:sfElonginB/C+CUL2/RBX1 was present confirming that MBP-FKBP-Hibit-His6 ubiquitination is PROTAC and sfVHL:sfElonginB/D+CUL2/RBX1 complex dependent.

`CC(C)C[C@H](NC(=O)[C@H](Cc1ccccc1)NC(=O)c1cnccn1)B(O)O` [bortezomib, Bortezomib] was tested, and the “effect on dTAG-V1 dependent reduction of GFP signal” value (FKBP-GFP; added together with dTAG-V1 (1 or 10 μM)) was “prevents the dTAG-V1 dependent reduction of GFP signal”.

`CC[C@H](C(=O)N1CCCC[C@H]1C(=O)O[C@H](CCc1ccc(OC)c(OC)c1)c1ccccc1OCC(=O)NCCCCCCC(=O)N[C@H](C(=O)N1C[C@@H](O)C[C@@H]1C(=O)N[C@@H](C)c1ccc(-c2scnc2C)cc1)C(C)(C)C)c1cc(OC)c(OC)c(OC)c1` [dTAG-V1-NEG] was tested, and the “GFP fluorescence (FKBP-GFP)” value (FKBP-GFP; 24 hours of incubation) was “no decrease in green fluorescent protein is observed”.

In the case of `CC[C@H](C(=O)N1CCCC[C@H]1C(=O)O[C@H](CCc1ccc(OC)c(OC)c1)c1ccccc1OCC(=O)NCCCCCCC(=O)N[C@H](C(=O)N1C[C@H](O)C[C@H]1C(=O)N[C@@H](C)c1ccc(-c2scnc2C)cc1)C(C)(C)C)c1cc(OC)c(OC)c(OC)c1` [dTAG-V1], the “GFP fluorescence (FKBP-GFP)” value (FKBP-GFP; 24 hours of incubation) is reported as “significantly decreased”, the RFP signal (FKBP-GFP; 24 hours of incubation) is reported as “remains unchanged” and the “concentration of optimal decrease of GFP fluorescence” value (FKBP-GFP; 24 hours of incubation) is reported as roughly 100 nM.

For `CC[C@H](C(=O)N1CCCC[C@H]1C(=O)O[C@H](CCc1ccc(OC)c(OC)c1)c1ccccc1OCC(=O)NCCCCCCC(=O)N[C@H](C(=O)N1C[C@H](O)C[C@H]1C(=O)N[C@@H](C)c1ccc(-c2scnc2C)cc1)C(C)(C)C)c1cc(OC)c(OC)c(OC)c1` [dTAGV-1], the “ubiquitination of MBP-FKBP-Hibit-His6” value [1] was “PROTAC mediated mono- and poly-ubiquitination of the protein; also recorded: observed in the presence of dTAGV-1 in a dose dependent manner; also recorded: FKBP substrate is ubiquitinated in vitro”.
